In ChEMBL document CHEMBL2074396, “Functional characterization of the rat multispecific organic anion transporter OAT1 mediating basolateral uptake of anionic drugs in the kidney” (FEBS Lett, 1998):

Tests used:
[1] = biological target: T1, Solute carrier family 22 member 6 (Rattus norvegicus, UniProt O35956); assay: TP_TRANSPORTER: inhibition of PAH uptake in Xenopus laevis oocytes; format: functional, cell-based; details: oocyte
T1 sequence (O35956 whole entry): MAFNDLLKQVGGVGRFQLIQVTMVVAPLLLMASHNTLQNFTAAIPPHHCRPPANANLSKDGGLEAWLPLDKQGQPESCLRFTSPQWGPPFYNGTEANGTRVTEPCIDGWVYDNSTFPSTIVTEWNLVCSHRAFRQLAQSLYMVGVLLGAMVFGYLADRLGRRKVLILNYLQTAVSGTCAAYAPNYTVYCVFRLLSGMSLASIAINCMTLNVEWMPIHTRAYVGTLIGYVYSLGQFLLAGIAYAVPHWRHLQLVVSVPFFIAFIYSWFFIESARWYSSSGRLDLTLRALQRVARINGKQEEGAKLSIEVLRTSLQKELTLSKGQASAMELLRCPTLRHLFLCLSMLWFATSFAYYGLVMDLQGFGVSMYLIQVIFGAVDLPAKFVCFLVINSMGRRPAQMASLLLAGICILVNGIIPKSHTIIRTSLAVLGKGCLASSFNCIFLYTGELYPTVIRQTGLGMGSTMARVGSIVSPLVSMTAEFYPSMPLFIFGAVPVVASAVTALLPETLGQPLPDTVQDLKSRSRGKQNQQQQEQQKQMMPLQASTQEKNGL

[2] = biological target: T1, Solute carrier family 22 member 6; assay: TP_TRANSPORTER: uptake in Xenopus laevis oocytes; format: functional, cell-based; details: oocyte

Activity [1] | Activity [2] | SMILES
inhibitor [+] | substrate [+] | Nc1nc2ncc(CNc3ccc(C(=O)N[C@@H](CCC(=O)O)C(=O)O)cc3)nc2c(=O)[nH]1 [FOLIC ACID]
– | is not a substrate [-] | C[C@H]1COc2c(N3CCN(C)CC3)c(F)cc3c(=O)c(C(=O)O)cn1c23.C[C@H]1COc2c(N3CCN(C)CC3)c(F)cc3c(=O)c(C(=O)O)cn1c23.O [LEVOFLOXACIN]
– | is not a substrate [-] | Cc1c(F)c(N2CCNC(C)C2)cc2c1c(=O)c(C(=O)O)cn2C1CC1 (centres undefined) [GREPAFLOXACIN]
